Measured values published in patent publication US9393232B2 (BeiGene, Ltd., priority 2013, dated 2016).
Where two headings read alike, the source gives them in different places.

Assays:
[1] = target: Recombinant human BRD4(1-477) (Homo sapiens (Human), UniProt O60885); assay: BRD4 TR-FRET biochemical IC50 assay; assay type: binding; conditions: TR-FRET, tetra-acetylated histone peptide; read-out: BRD4 IC50
MV4-11 = MV4-11 (3 Days) EC50; assay type: cell-based

| SMILES | IC50 [1] | EC50 (MV4-11; Homo sapiens, 72 h) | EC50 (MV4-11; Homo sapiens, MV4-11, 72 h) | EC50 (MV4-11) |
| --- | --- | --- | --- | --- |
| Cc1noc(C)c1-c1ccc2c(c1)C(O)(c1ccc(F)c(F)c1)C(=O)N2 (stereo not shown) [Compound 1.8, 3-(3,4-difluorophenyl)-5-(3,5-dimethylisoxazol-4-yl)-3-hydroxyindolin-2-one] | 200 nM | 425 nM |  |  |
| COc1ccc(C2(O)C(=O)Nc3ccc(-c4c(C)noc4C)cc32)cc1 (stereo not shown) [Compound 1.9, 5-(3,5-dimethylisoxazol-4-yl)-3-hydroxy-3-(4-methoxyphenyl)indolin-2-one] | 410 nM | 536 nM |  |  |
| Cc1ccsc1C1(O)C(=O)Nc2ccc(-c3c(C)noc3C)cc21 (stereo not shown) [Compound 1.13, 5-(3,5-dimethylisoxazol-4-yl)-3-hydroxy-3-(3-methylthiophen-2-yl)indolin-2-one] | 560 nM | 746 nM |  |  |
| Cc1noc(C)c1-c1ccc2c(c1)C(O)(C1CCCCC1)C(=O)N2 (stereo not shown) [Compound 1.15, 3-cyclohexyl-5-(3,5-dimethylisoxazol-4-yl)-3-hydroxyindolin-2-one] | 77 nM | 183 nM |  |  |
| Cc1noc(C)c1-c1ccc2c(c1)C(O)(C1CCCC1)C(=O)N2 (stereo not shown) [Compound 1.17, 3-cyclopentyl-5-(3,5-dimethylisoxazol-4-yl)-3-hydroxyindolin-2-one] | 270 nM | 671 nM |  |  |
| Cc1noc(C)c1-c1ccc2c(c1)C(O)(C1CCC1)C(=O)N2 (stereo not shown) [Compound 1.18, 3-cyclobutyl-5-(3,5-dimethylisoxazol-4-yl)-3-hydroxyindolin-2-one] | 510 nM | 1140 nM |  |  |
| Cc1noc(C)c1-c1ccc2c(c1)C(O)(C1CC1)C(=O)N2 (stereo not shown) [Compound 1.19, 3-cyclopropyl-5-(3,5-dimethylisoxazol-4-yl)-3-hydroxyindolin-2-one] | 850 nM | 1960 nM |  |  |
| CC#CC1(O)C(=O)Nc2ccc(-c3c(C)noc3C)cc21 (stereo not shown) [Compound 1.22, 5-(3,5-dimethylisoxazol-4-yl)-3-hydroxy-3-(prop-1-ynyl)indolin-2-one] | 220 nM |  | 478 nM |  |
| Cc1noc(C)c1-c1ccc2c(c1)C(Cl)(c1ccccc1)C(=O)N2 (stereo not shown) [Compound 1.31, 3-Chloro-5-(3,5-dimethylisoxazol-4-yl)-3-phenylindolin-2-one] | 58 nM |  | 152 nM |  |
| Cc1noc(C)c1-c1ccc2c(c1)C(OCCO)(c1ccccc1)C(=O)N2 (stereo not shown) [Compound 1.32, 5-(3,5-Dimethylisoxazol-4-yl)-3-(2-hydroxyethoxy)-3-phenylindolin-2-one] | 79 nM |  | 82 nM |  |
| Cc1noc(C)c1-c1ccc2c(c1)C(NCCO)(c1ccccc1)C(=O)N2 (stereo not shown) [Compound 2.1, 5-(3,5-dimethylisoxazol-4-yl)-3-(2-hydroxyethylamino)-3-phenylindolin-2-one] | 70 nM |  | 78 nM |  |
| Cc1noc(C)c1-c1ccc2c(c1)C(c1ccccc1)(N1CCCCC1)C(=O)N2 (stereo not shown) [Compound 2.3, 5-(3,5-dimethylisoxazol-4-yl)-3-phenyl-3-(piperidin-1-yl)indolin-2-one] | 84 nM |  | 542 nM |  |
| Cc1noc(C)c1-c1ccc2c(c1)C(c1ccccc1)(N1CCC(O)CC1)C(=O)N2 (stereo not shown) [Compound 2.4, 5-(3,5-dimethylisoxazol-4-yl)-3-(4-hydroxypiperidin-1-yl)-3-phenylindolin-2-one] | 36 nM |  | 76 nM |  |
| Cc1noc(C)c1-c1ccc2c(c1)C(c1ccccc1)(N1CCN(C)CC1)C(=O)N2 (stereo not shown) [Compound 2.5, 5-(3,5-dimethylisoxazol-4-yl)-3-(4-methylpiperazin-1-yl)-3-phenylindolin-2-one] | 110 nM |  | 420 nM |  |
| Cc1noc(C)c1-c1ccc2c(c1)C(c1ccccc1)(N1CCOCC1)C(=O)N2 (stereo not shown) [Compound 2.6, 5-(3,5-dimethylisoxazol-4-yl)-3-morpholino-3-phenylindolin-2-one] | 63 nM |  | 179 nM |  |
| Cc1noc(C)c1-c1ccc2c(c1)C(NCCO)(C1CCCCC1)C(=O)N2 (stereo not shown) [Compound 2.18, 3-cyclohexyl-5-(3,5-dimethylisoxazol-4-yl)-3-(2-hydroxyethylamino)indolin-2-one] | 85 nM |  | 204 nM |  |
| Cc1noc(C)c1-c1ccc2c(c1)C(NC[C@H](C)O)(C1CCCCC1)C(=O)N2 (stereo partly drawn) [Compound 2.21, 3-cyclohexyl-5-(3,5-dimethylisoxazol-4-yl)-3-((S)-2-hydroxypropylamino)indolin-2-one] | 88 nM |  |  | 270 nM |
| Cc1noc(C)c1-c1ccc2c(c1)C(N[C@@H](C)CO)(C1CCCCC1)C(=O)N2 (stereo partly drawn) [Compound 2.23, 3-cyclohexyl-5-(3,5-dimethylisoxazol-4-yl)-3-((S)-1-hydroxypropan-2-ylamino)indolin-2-one] | 160 nM |  | 371 nM |  |
| Cc1noc(C)c1-c1ccc2c(c1)C(N[C@H](C)CO)(C1CCCCC1)C(=O)N2 (stereo partly drawn) [Compound 2.24, 3-cyclohexyl-5-(3,5-dimethylisoxazol-4-yl)-3-((R)-1-hydroxypropan-2-ylamino)indolin-2-one] | 75 nM |  | 349 nM |  |
| Cc1noc(C)c1-c1ccc2c(c1)C(NC(C)C)(C1CCCCC1)C(=O)N2 (stereo not shown) [Compound 2.27, 3-cyclohexyl-5-(3,5-dimethylisoxazol-4-yl)-3-(isopropylamino)indolin-2-one] | 85 nM |  | 833 nM |  |
| Cc1noc(C)c1-c1ccc2c(c1)C(NCCN(C)C)(C1CCCCC1)C(=O)N2 (stereo not shown) [Compound 2.28, 3-cyclohexyl-3-(2-(dimethylamino)ethylamino)-5-(3,5-dimethylisoxazol-4-yl)indolin-2-one] | 140 nM |  | 539 nM |  |
| Cc1noc(C)c1-c1ccc2c(c1)C(C1CCCCC1)(N1CCOCC1)C(=O)N2 (stereo not shown) [Compound 2.29] | 94 nM |  | 314 nM |  |
| Cc1noc(C)c1-c1ccc2c(c1)C(C1CCCC1)(N1CCOCC1)C(=O)N2 (stereo not shown) [Compound 2.34, 3-cyclopentyl-5-(3,5-dimethylisoxazol-4-yl)-3-morpholinoindolin-2-one] | 120 nM |  | 438 nM |  |
| Cc1noc(C)c1-c1ccc2c(c1)C(NCCO)(C1CCCC1)C(=O)N2 (stereo not shown) [Compound 2.35, 3-cyclopentyl-5-(3,5-dimethylisoxazol-4-yl)-3-(2-hydroxyethylamino)indolin-2-one] | 130 nM |  | 324 nM |  |
| Cc1noc(C)c1-c1ccc2c(c1)C(c1ccccc1)(N1CCNCC1)C(=O)N2 (stereo not shown) [Compound 2.38, 5-(3,5-dimethylisoxazol-4-yl)-3-phenyl-3-(piperazin-1-yl)indolin-2-one] | 120 nM |  | 504 nM |  |
| Cc1noc(C)c1-c1ccc2c(c1)C(C1CCCCC1)(N1CCNCC1)C(=O)N2 (stereo not shown) [Compound 2.39] | 76 nM |  | 365 nM |  |
| Cc1noc(C)c1-c1ccc2c(c1)C(C1CCCC1)(N1CCNCC1)C(=O)N2 (stereo not shown) [Compound 2.40, 3-Cyclopentyl-5-(3,5-dimethylisoxazol-4-yl)-3-(piperazin-1-yl)indolin-2-one] | 150 nM |  | 555 nM |  |
| Cc1noc(C)c1-c1ccc2c(c1)C(c1ccccc1)(N1CC(O)C1)C(=O)N2 (stereo not shown) [Compound 2.58, 5-(3,5-Dimethylisoxazol-4-yl)-3-(3-hydroxyazetidin-1-yl)-3-phenylindolin-2-one] | 78 nM |  | 258 nM |  |
| Cc1noc(C)c1-c1ccc2c(c1)C(c1ccccc1)C(=O)N2 (stereo not shown) [Compound 3.1, 5-(3,5-Dimethylisoxazol-4-yl)-3-phenylindolin-2-one] | 110 nM |  | 382 nM |  |
